According to ChEMBL document CHEMBL1201862, “PubChem BioAssay data set” (2004):
The source made the active and inactive calls.

Columns and labels:
[1] = cytotoxicity in HeLa cells, dose response, cytotoxicity control, cell-based, 24 h, dry powder, set 2 (AID 651774); type: functional
[2] = reduction of Shn3 3'UTR firefly luciferase signal, dose response, Schnurri-3 inhibitor project, cell-based, Clone20 osteoblasts, cherry-pick, set 2 (AID 720490); type: functional;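 note: actives lower the luminescence signal as inhibitors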
[3] = Shn3 3'UTR reporter inhibitors, dose response, cell-based, Clone20 osteoblasts, firefly luciferase, cherry-picked (AID 624132); type: functional;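 note: firefly luciferase luminescence from reporter carrying the Shn3 3'UTR in osteoblasts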
[4] = HepG2 cell cytotoxicity, dose response, cytotoxicity control for Shn3 inhibitor project, CellTiter-Glo, cherry-picked (AID 624134); type: functional, cell-based
[5] = inhibitors of control Renilla luciferase reporter, dose response, counter-screen for Shn3 3'UTR targeting project, Clone20-Shn3RL cells, dual-Glo, cherry-pick, set 2 (AID 720724); type: functional, cell-based; details: Dual-Go Shn3RL
INS1 = test: beta cell apoptosis inhibitors, cytokine rescue, dose response, luminescence, retest (AID 449756); type: functional, cell-based; details: Rattus norvegicus;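 note: cell death triggered by IL-1 beta plus TNF-alpha plus IFN-gamma mixture; protective hits raise ATP signal compared with cytokine alone wells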
Melanocortin receptor 4 = Melanocortin receptor 4 (Homo sapiens, UniProt P32245); type: functional, cell-based;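 note: Cell-based assay with luminescence read-out, confirmatory dose-response testing for agonist activity of biased ligands at MC4R; human U2OS cells with tagged receptor and beta-arrestin; potency of agonists that increase receptor coupling to beta-arrestin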
[6] = Counterscreen for activators of the function of SWI/SNF related, matrix associated, actin dependent regulator of chromatin, subfamily a, member 2 (SMARCA2, BRM): Luminescence-based cell-based high throughput dose response assay to identify non-selective compounds using the VP16 reporter assay.; type: functional
[7] = target: T1, DNA repair protein RAD52 homolog (Homo sapiens, UniProt P43351); type: functional, biochemical
T1 sequence (P43351 whole entry): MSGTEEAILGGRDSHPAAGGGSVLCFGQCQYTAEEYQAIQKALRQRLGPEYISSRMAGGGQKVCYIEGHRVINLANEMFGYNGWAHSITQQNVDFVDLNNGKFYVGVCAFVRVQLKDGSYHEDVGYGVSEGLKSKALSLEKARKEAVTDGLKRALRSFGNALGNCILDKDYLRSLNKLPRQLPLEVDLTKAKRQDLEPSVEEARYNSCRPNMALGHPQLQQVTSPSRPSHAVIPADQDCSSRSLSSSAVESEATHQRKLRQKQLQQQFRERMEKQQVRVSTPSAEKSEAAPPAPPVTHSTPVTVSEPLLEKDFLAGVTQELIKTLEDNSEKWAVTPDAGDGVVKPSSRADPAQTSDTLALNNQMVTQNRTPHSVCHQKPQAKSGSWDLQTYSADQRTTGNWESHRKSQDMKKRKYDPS

[8] = target: SWI/SNF-related matrix-associated actin-dependent regulator of chromatin subfamily A member 2 (Homo sapiens, UniProt P51531); test: Luminescence-based cell-based high throughput dose response assay to identify activators of the function of SWI/SNF related, matrix associated, actin dependent regulator of chromatin, subfamily a, member 2 (SMARCA2, BRM).; type: functional
[9] = target: Disintegrin and metalloproteinase domain-containing protein 17 (Homo sapiens, UniProt P78536); test: ADAM17 protease inhibitors, dose response, counter-screen for ADAM10 exosite inhibitor project, biochemical, quenched FRET substrate (AID 743253)
[10] = ADAM10 inhibitors, peptide cleavage, dose response, biochemical, QFRET (AID 743254);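 note: ADAM10 enzyme with the DM2 quenched FRET peptide as substrate; EDANS fluorescence gain as the protease cuts the substrate; inhibitor potency against ADAM10 proteolytic activity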
Aspartyl aminopeptidase = target: T2, Aspartyl aminopeptidase (Plasmodium falciparum 3D7, UniProt Q8I2J3)
T2 sequence (Q8I2J3 whole entry): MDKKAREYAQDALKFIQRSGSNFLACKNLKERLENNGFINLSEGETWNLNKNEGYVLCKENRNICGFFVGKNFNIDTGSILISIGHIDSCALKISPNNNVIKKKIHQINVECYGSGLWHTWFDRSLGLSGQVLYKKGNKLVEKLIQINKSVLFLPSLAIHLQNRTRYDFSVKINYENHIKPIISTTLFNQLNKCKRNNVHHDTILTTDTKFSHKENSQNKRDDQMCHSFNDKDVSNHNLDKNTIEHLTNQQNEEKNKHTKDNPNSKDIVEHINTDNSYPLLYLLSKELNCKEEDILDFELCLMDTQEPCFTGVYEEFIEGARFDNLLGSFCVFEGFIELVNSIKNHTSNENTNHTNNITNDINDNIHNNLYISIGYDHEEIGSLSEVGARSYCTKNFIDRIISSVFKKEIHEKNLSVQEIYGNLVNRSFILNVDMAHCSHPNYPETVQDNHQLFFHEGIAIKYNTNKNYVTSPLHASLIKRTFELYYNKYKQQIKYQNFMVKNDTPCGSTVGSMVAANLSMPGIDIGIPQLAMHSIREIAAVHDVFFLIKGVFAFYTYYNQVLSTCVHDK

[11] = target: 5-hydroxytryptamine receptor 2A (Mus musculus, UniProt P35363); type: functional, cell-based;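 note: CHO-K1 cells with tagged receptor and beta-arrestin; agonist potency measured as compound-induced activation of the receptor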
Procathepsin L = Procathepsin L (Homo sapiens, UniProt P07711)
[12] = HEK293T cell cytotoxicity, dose response, cytotoxicity control for HIV Vif inhibitor project, cherry-picks (AID 652208); type: functional, cell-based
[13] = inhibitors of PGC1a acetylation in cells, dose response, cell-based, cherry-picked samples (AID 720514); type: functional;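 note: potency may reflect raised or lowered acetylation signal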
[14] = control 3'UTR Renilla luciferase suppression, dose response, counter-screen for Shn3 inhibitor project, cell-based, Clone20-Shn3RL, cherry-picked (AID 624133); type: functional
[15] = target: T3, Microphthalmia-associated transcription factor (Homo sapiens, UniProt O75030); test: TRPM1 promoter luciferase signal decrease, dose response, MITF inhibitor project, cell-based, SK-MEL-5, cherry-picked, set 3 (AID 493073); type: functional
T3 sequence (O75030 whole entry): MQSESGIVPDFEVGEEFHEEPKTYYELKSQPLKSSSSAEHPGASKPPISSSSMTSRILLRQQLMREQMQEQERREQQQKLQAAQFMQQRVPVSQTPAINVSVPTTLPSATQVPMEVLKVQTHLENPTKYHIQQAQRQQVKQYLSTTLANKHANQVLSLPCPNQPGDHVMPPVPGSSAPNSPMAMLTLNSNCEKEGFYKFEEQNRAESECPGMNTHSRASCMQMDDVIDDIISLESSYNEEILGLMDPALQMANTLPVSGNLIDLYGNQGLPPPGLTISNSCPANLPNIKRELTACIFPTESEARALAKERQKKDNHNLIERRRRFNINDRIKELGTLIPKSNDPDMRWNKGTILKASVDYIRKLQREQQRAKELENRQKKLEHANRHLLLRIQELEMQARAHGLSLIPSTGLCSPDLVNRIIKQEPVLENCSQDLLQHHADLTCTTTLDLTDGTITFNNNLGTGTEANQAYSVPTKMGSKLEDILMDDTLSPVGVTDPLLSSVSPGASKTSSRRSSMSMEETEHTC

HEK293 [16] = test: optical interference in Abeta FP readout, dose response, artefact control for IDE activator project, biochemical, fluorescence polarization (AID 588442); type: functional, cell-based; details: Homo sapiens
A-375 = test: MITF: Counter assay: A375 proliferation Measured in Cell-Based System Using Plate Reader - 2084-03_Inhibitor_Dose_DryPowder_Activity. [Related pubchem assays (depositor defined):AID488944]; type: functional; details: Homo sapiens
HEK293 [17] = test: HEK cell cytotoxicity by LDH release, dose response, cytotoxicity control for IDE activator project, fluorescence, HEK cells (AID 588440); type: functional, cell-based; details: Homo sapiens;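 note: cytotoxicity by LDH release measuring loss of membrane integrity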
Insulin-degrading enzyme [18] = target: T4, Insulin-degrading enzyme (Homo sapiens, UniProt P14735); test: activators of endogenous IDE in HEK cells, dose response, cell-based, fluorescence polarization (AID 588439); type: functional
T4 sequence (P14735 whole entry): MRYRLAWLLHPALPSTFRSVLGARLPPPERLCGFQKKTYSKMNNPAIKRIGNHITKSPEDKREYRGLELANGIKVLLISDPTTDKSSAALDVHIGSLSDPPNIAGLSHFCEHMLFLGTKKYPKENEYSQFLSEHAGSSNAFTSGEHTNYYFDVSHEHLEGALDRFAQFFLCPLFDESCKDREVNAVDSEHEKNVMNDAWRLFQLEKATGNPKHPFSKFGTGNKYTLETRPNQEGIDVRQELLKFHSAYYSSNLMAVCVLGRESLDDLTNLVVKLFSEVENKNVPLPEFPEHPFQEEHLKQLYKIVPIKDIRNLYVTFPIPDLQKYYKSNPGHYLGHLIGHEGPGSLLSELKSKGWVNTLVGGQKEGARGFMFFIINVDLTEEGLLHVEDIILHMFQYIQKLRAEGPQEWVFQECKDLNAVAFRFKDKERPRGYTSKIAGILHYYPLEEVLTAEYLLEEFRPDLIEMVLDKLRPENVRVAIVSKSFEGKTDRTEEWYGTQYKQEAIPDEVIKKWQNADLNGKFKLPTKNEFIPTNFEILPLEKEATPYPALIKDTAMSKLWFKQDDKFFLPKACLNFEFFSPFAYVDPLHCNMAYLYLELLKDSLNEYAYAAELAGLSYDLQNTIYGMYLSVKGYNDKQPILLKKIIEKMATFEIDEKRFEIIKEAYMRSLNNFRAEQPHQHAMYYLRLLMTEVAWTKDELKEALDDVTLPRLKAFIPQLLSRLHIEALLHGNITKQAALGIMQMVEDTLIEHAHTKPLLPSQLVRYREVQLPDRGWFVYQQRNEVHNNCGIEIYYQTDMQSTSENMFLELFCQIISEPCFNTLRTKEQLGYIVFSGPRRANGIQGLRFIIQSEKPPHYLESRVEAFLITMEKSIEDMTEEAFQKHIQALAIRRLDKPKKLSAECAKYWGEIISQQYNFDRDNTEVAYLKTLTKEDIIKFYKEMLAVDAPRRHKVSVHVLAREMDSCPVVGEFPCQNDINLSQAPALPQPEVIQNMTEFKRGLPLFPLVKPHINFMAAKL

Insulin-degrading enzyme [19] = target: T4, Insulin-degrading enzyme; test: activators of recombinant IDE enzyme, dose response, counter-screen for IDE activator project, biochemical, fluorescence polarization (AID 588681)
Leucine aminopeptidase = target: T5, Leucine aminopeptidase (Plasmodium falciparum 3D7, UniProt Q8IL11); test: P. falciparum M17LAP inhibitors, primary screen, biochemical, fluorogenic H-Leu-NHMec substrate, 1536-well (AID 1619); type: functional
T5 sequence (Q8IL11 whole entry): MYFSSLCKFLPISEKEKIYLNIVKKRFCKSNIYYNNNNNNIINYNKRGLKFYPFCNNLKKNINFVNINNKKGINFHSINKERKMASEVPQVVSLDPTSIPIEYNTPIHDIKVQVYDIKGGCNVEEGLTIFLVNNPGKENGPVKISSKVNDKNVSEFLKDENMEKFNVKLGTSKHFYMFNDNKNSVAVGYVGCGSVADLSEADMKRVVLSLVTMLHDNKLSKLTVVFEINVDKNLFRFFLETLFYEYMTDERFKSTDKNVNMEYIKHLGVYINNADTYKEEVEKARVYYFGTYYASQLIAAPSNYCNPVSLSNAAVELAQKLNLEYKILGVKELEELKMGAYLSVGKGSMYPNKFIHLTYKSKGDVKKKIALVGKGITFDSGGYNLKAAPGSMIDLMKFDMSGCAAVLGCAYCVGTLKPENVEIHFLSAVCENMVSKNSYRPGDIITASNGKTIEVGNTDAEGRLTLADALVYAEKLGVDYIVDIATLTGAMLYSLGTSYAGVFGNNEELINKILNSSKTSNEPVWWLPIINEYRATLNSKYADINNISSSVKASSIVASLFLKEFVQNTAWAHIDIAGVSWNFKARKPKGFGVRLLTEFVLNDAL

[20] = target: Arf-GAP with SH3 domain, ANK repeat and PH domain-containing protein 1 (Homo sapiens, UniProt Q9ULH1); type: functional;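 note: biochemical fluorescence polarization dose–response screen measuring inhibition of ASAP1; ASAP1 GAP domain stimulating GTP hydrolysis by truncated human ARF1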
Mu-type opioid receptor = Mu-type opioid receptor (Homo sapiens, UniProt P35372); type: functional, cell-based;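 note: U2OS cells with beta-arrestin recruitment to OPRM1 by beta-gal complementation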
Chain of Mu-type opioid receptor (P35372 whole entry): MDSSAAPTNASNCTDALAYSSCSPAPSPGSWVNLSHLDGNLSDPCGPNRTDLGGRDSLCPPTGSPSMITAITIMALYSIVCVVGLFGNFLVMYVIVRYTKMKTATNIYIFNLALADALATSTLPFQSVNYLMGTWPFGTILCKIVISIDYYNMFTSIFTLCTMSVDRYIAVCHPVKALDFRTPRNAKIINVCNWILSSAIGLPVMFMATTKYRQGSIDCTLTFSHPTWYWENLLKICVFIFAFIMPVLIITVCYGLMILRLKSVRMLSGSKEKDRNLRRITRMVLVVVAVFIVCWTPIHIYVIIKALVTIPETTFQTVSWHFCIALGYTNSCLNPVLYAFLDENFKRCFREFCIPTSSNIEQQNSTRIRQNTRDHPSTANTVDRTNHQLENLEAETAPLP

Chain of 5-hydroxytryptamine receptor 2A (P35363 whole entry): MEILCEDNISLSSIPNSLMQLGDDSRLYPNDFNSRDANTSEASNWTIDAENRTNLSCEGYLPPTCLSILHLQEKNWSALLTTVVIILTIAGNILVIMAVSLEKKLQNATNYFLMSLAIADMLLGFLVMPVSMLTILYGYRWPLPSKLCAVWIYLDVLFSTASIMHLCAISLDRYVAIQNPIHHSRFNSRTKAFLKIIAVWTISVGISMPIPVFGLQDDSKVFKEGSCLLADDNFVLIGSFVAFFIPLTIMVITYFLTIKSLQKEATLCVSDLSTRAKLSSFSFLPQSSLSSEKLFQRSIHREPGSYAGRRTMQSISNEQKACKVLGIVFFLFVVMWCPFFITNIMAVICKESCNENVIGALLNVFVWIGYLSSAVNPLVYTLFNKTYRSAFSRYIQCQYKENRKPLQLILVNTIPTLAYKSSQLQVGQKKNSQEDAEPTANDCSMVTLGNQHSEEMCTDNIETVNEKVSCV
Chain of Disintegrin and metalloproteinase domain-containing protein 17 (P78536 whole entry, the tested form may be a part): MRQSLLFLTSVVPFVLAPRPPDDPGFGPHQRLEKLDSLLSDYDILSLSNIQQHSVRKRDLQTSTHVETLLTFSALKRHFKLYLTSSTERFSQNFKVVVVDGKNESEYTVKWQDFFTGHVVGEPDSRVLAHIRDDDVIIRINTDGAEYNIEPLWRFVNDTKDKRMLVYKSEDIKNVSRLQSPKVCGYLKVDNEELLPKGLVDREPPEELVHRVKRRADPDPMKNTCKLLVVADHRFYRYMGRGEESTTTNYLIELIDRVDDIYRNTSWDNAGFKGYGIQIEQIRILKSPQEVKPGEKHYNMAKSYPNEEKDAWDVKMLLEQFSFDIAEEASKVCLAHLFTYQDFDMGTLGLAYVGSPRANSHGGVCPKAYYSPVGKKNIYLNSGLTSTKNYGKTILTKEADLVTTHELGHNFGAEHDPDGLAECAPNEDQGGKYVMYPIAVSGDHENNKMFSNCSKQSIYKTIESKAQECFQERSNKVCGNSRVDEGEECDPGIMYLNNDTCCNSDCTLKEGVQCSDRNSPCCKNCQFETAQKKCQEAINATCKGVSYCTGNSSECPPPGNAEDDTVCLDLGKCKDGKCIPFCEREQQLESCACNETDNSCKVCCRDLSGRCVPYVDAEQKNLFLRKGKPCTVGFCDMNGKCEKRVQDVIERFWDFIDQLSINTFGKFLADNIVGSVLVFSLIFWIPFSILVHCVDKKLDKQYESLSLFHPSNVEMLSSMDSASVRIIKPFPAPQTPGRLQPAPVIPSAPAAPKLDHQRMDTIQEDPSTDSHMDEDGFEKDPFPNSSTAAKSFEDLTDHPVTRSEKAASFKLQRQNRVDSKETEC
Chain of Melanocortin receptor 4 (P32245 whole entry): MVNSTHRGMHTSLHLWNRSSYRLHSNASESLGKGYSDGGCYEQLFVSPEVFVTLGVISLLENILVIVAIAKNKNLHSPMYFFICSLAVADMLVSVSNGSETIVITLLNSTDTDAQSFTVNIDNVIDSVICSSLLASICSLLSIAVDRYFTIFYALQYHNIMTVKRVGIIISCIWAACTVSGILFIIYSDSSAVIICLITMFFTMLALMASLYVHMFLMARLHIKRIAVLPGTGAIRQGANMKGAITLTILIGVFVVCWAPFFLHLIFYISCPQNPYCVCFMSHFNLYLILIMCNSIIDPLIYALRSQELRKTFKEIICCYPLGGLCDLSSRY
Chain of SWI/SNF-related matrix-associated actin-dependent regulator of chromatin subfamily A member 2 (P51531 whole entry, the tested form may be a part): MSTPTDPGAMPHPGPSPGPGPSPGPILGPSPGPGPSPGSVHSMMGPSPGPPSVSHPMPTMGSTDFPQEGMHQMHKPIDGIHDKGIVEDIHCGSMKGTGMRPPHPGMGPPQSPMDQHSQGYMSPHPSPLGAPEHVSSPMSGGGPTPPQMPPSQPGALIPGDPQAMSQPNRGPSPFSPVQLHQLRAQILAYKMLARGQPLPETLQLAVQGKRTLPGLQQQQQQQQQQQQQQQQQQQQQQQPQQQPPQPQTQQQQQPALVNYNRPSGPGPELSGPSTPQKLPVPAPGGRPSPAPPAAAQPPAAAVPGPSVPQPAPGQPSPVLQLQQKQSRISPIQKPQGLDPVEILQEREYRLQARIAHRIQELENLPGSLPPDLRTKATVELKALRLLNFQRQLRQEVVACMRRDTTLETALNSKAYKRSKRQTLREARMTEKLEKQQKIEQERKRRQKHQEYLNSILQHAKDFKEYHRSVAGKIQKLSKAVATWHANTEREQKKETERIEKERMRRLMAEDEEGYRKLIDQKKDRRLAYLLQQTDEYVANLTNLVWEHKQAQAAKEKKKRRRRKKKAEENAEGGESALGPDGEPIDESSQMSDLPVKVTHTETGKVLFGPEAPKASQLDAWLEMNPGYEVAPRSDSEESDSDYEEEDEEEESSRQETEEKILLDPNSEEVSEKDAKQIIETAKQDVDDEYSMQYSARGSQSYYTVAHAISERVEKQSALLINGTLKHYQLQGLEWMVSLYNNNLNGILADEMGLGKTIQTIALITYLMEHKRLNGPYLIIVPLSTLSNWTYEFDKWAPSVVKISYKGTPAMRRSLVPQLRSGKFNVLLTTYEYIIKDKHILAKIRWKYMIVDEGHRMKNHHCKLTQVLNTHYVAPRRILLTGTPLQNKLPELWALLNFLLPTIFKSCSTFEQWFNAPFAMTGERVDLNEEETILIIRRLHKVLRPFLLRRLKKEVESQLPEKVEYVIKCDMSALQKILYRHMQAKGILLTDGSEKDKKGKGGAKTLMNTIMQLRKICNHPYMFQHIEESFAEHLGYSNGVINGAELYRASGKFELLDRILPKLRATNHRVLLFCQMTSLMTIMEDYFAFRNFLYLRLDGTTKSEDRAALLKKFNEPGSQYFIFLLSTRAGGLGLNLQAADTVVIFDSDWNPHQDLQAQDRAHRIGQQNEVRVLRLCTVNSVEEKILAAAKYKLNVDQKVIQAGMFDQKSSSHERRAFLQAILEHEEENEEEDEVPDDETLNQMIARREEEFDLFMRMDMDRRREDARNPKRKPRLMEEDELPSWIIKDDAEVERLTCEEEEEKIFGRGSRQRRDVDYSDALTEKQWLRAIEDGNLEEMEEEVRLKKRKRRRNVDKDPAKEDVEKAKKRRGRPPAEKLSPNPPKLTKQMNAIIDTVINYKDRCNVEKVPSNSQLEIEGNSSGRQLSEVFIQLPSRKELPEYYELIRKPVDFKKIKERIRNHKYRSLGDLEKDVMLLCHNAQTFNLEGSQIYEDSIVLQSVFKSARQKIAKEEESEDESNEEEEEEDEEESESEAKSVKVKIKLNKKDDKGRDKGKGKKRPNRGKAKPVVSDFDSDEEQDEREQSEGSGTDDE
Chain of Arf-GAP with SH3 domain, ANK repeat and PH domain-containing protein 1 (Q9ULH1 whole entry, the tested form may be a part): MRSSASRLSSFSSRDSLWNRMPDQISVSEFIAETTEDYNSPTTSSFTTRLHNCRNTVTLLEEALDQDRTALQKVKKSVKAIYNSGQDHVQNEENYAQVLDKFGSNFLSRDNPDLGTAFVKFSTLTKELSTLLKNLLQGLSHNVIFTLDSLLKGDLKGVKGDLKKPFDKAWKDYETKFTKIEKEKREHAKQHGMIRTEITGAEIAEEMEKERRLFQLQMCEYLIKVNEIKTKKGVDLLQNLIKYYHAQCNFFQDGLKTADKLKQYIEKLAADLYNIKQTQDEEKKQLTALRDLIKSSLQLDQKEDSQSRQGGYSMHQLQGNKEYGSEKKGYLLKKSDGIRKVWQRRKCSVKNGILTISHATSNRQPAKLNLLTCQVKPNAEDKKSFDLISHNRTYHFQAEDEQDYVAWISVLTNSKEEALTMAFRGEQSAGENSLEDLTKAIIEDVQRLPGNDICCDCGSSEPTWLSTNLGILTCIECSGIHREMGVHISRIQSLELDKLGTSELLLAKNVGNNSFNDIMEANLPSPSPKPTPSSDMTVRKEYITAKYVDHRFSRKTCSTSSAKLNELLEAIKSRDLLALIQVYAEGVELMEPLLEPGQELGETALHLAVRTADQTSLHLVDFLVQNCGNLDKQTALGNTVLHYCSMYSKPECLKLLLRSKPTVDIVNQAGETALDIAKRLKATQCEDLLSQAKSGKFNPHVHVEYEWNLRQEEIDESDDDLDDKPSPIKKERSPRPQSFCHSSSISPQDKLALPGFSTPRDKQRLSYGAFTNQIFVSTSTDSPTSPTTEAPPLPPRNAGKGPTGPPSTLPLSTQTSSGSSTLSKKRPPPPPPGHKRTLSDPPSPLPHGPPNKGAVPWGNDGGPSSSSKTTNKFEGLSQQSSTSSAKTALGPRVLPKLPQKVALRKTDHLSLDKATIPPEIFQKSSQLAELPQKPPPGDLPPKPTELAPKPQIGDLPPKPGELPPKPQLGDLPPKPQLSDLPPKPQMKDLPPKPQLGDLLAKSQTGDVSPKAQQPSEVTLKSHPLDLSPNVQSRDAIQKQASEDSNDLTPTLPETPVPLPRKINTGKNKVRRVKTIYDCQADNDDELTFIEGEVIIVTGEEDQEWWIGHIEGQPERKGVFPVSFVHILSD

O=C(Cc1ccc(Cl)cc1)NC1CCCC1
AC50 [1]: > 70 µM (inactive)

COc1ccc(OC)c(NC(=O)CN(Cc2ccc(F)cc2)C2CCCCC2)c1
AC50 [2]: 6.54 µM (active)
AC50 [3]: 4.99 µM (active)
AC50 [4]: 50.8 µM (active)
AC50 [5]: 34.6 µM (active)
AC50 (INS1): 4.33 µM (active)

CN(C)CCNC(=O)c1cccc(-c2cc(NC=O)c3ncc(-c4cccc(C(F)(F)F)c4)n3c2)c1
EC50 (Melanocortin receptor 4): > 89.2 µM (inactive)
EC50 [6]: > 91.2 µM (inactive)
AC50 [7]: 4.34 µM (active)
EC50 [8]: > 91.2 µM (inactive)

C=CCC[C@@H](Cc1ccc(F)cc1)C(=O)O[C@H](CNC(=O)[C@H](CC=C)CC(=O)N(CCO)Cc1ccccc1)c1ccccc1
IC50 [9]: > 69.5 µM (inactive)
IC50 [10]: 12.2 µM (inactive)

CCc1nc2ccc(C(=O)Nc3ccc(OC)c(OC)c3)cn2c1N(CC)Cc1cccc(Br)c1
IC50 [9]: > 69.5 µM (inactive)
IC50 [10]: > 69.5 µM (inactive)

CNC[C@H](O)c1ccc(O)c(O)c1 [EPINEPHRINE BITARTRATE]
IC50 (Aspartyl aminopeptidase): 3.01 µM (active)
EC50 [11]: 0.586 µM (active)
IC50 (Procathepsin L): > 59.6 µM (not active)

Cc1nc2scc(C)n2c(=O)c1S(=O)(=O)Nc1ccc(N2CCOCC2)c(Cl)c1
AC50 [2]: 2.04 µM (active)
AC50 [3]: 1.67 µM (active)
AC50 [5]: 38.3 µM (active)

COc1cc(NC(=O)NCc2ccco2)ccc1-c1ccc(NC(=O)NCc2ccco2)cc1OC
AC50 [12]: > 52 µM (inactive)
AC50 [13]: 14 µM (active)
AC50 [14]: 10.3 µM (active)
AC50 [3]: 3.19 µM (active)
AC50 [4]: > 70 µM (inactive)

Cc1cc(NC(=O)c2cncc(Br)c2)ccc1NC(=O)c1cc2ccccc2o1
AC50 [12]: 15.4 µM (active)
EC50 (Melanocortin receptor 4): > 89.2 µM (inactive)
AC50 [15]: 10.4 µM (active)
EC50 (HEK293 [16]): > 55.9 µM (inactive)
AC50 (A-375): 26.2 µM (active)
IC50 (HEK293 [17]): 5.63 µM (active)
EC50 (Insulin-degrading enzyme [18]): > 54.7 µM (inactive)
EC50 (Insulin-degrading enzyme [19]): > 54.7 µM (inactive)

Cc1ccc(NC(=O)CSc2ncccc2C(=O)Oc2cccc([N+](=O)[O-])c2)cc1Cl
IC50 (Leucine aminopeptidase): 32 µM (active)
IC50 [20]: 45.7 µM (inactive)

CCOC(=O)C1=CCN(Cc2ccccc2)CC1
EC50 [11]: 5.35 µM (active)
EC50 (Mu-type opioid receptor): 92.5 µM (inactive)
